Laboratory results reported in BindingDB's records for doi:10.1021/np800491u (Korean Research Institute of Biosciences and Biotechnology, 2009).

Test: Inhibition of hypoxia-induced HIF1alpha protein accumulation in human Hep3B cells treated for 30 mins measured after 12 hrs by Western blot analysis

IC50 [µM]	SMILES
0.00065	CC1(C)Oc2cc3oc(-c4cc(O)cc(O)c4)cc3cc2C[C@H]1O [(-)-Moracin P]
> 50	Oc1cc(O)cc(-c2cc3ccc(O)cc3o2)c1 [moracin M]
3.51	CC(C)=CCC/C(C)=C/Cc1c(O)cc(O)cc1-c1cc2ccc(O)cc2o1 [albafuran A]
0.00014	CC(C)(O)C1Cc2cc3cc(-c4cc(O)cc(O)c4)oc3cc2O1 (stereo unspecified) [moracin O]
5.88	COc1c(O)cc2oc(-c3cc(O)cc(O)c3)cc2c1CC(=O)C(C)C [Moracin Q]

Continued, compound first:

SMILES	IC50 [µM]
CC(C)=CC[C@@]12Oc3cc(O)c([C@H]4C=C(C)C[C@H](c5ccc(O)cc5O)[C@H]4C(=O)c4ccc(O)cc4O)c(O)c3C(=O)[C@]1(O)Oc1cc(O)ccc12 [Sanggenon O]	1.03
CC(C)=CC[C@]12Oc3cc(O)c([C@H]4C=C(C)C[C@H](c5ccc(O)cc5O)[C@H]4C(=O)c4ccc(O)cc4O)c(O)c3C(=O)[C@@]1(O)Oc1cc(O)ccc12 [sanggenon C]	1.26
CC(C)=CCC/C(C)=C\CC/C(C)=C\Cc1c(O)cc(O)cc1-c1cc2ccc(O)cc2o1 [mulberrofuran W]	3.62
C[C@@]12C=C(c3c(O)cc(-c4cc5ccc(O)cc5o4)cc3O)C[C@@H](C1)c1ccc(O)cc1O2 [Mulberrofuran H]	0.14
CC(C)=CCC/C(C)=C/Cc1c(O)ccc2cc(-c3cc(O)cc(O)c3CC=C(C)C)oc12 [mulberrofuran D]	4.05
CC1=C[C@H]2c3c(O)cc(-c4cc5ccc(O)cc5o4)cc3O[C@@]3(c4ccc(O)cc4O)Oc4cc(O)ccc4[C@H](C1)[C@@H]23 [CHEBI:2544]	2.6
